Patent US10450347B2, “Immunomodulators” (BRISTOL-MYERS SQUIBB COMPANY, priority 2015, dated 2019)
Starred links: 1 amine or outer side, 2 acyl side, 3 side chain; linkers in the order of their positions; H or OH if unused. Positions of bridges follow the written chain, without caps; N, C: chain ends. Non-standard residues stand in square brackets, D forms with d. Residues, ends and D or L forms follow the SMILES beside them. Tyrψ(CN4)Ala = C[C@@H](C(=O)[*:2])n1nnnc1[C@H](Cc1ccc(O)cc1)N[*:1]; X1 = CCCC[C@@H](C(=O)[*:2])n1nnnc1[C@H](Cc1c[nH]c2ccccc12)N[*:1]; X3 = O=C(C[C@@H](CO)C(=O)[*:2])[C@H](Cc1c[nH]c2ccccc12)N[*:1]; X4 = CCCC[C@@H](C(=O)[*:2])n1nnnc1[C@H](Cc1csc2ccccc12)N[*:1]; X5 = C[C@@H](C(=O)[*:2])n1nnnc1[C@H](Cc1ccccc1)N[*:1]; Bta = N[C@@H](Cc1csc2ccccc12)C(=O)O; Hyp = O=C(O)[C@@H]1C[C@@H](O)CN1; NMeNle = CCCC[C@H](NC)C(=O)O; NMeA = CN[C@@H](C)C(=O)O; Orn = NCCC[C@H](N)C(=O)O; Dap = NC[C@H](N)C(=O)O; Sar = CNCC(=O)O

Target: T1, PD-1-Ig/PD-L1-His (Homo sapiens, UniProt Q9NZQ7)
T1 construct: [hPD-L1(19-239)-tobacco vein mottling virus protease cleavage site (TVMV)-His]; made in house; host or cells: HEK293T cells
T1 sequence (Q9NZQ7 with tags, fused parts or gaps): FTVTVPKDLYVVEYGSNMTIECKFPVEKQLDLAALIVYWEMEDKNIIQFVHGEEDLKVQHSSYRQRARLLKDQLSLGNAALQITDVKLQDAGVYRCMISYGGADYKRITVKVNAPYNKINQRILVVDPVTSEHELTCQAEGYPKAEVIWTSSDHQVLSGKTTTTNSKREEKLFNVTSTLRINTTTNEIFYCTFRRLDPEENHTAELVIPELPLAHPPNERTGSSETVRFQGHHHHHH
Test: PD-1/PD-L1 Homogenous Time-Resolved Fluorescence (HTRF) binding assay
Conditions: inhibition of PD-1-Ig binding to PD-L1-TVMV-His
From the text: The ability of the macrocyclic peptides of the present disclosure to bind to PD-L1 was investigated using a PD-1/PD-L1 Homogenous Time-Resolved Fluorescence (HTRF) binding assay.
Homogenous Time-Resolved Fluorescence (HTRF) Assays of Binding of Soluble PD-1 to Soluble PD-L1. Soluble PD-1 and soluble PD-L1 refers to proteins with carboxyl-end truncations that remove the transmembrane-spanning regions and are fused to heterologous sequences, specifically the Fc portion of the human immunoglobuling G sequence (Ig) or the hexahistidine epitope tag (SEQ ID NO: 3) (His). All binding studies were performed in an HTRF assay buffer consisting of dPBS supplemented with 0.1% (w/v) bovine serum albumin and 0.05% (v/v) Tween-20. For the PD-1-Ig/PD-L1-His binding assay, inhibitors were pre-incubated with PD-L1-His (10 nM final) for 15 m in 4 μl of assay buffer, followed by addition of PD-1-Ig (20 nM final) in 1 μl of assay buffer and further incubation for 15 m. PD-L1 fusion proteins from either human, cynomologous macaques, mouse, or other species were used. HTRF detection was achieved using europium crypate-labeled anti-Ig monoclonal antibody (1 nM final) and allophycocyanin (APC) labeled anti-His monoclonal antibody (20 nM final). Antibodies were diluted in HTRF detection buffer and 5 μl was dispensed on top of binding reaction. The reaction was allowed to equilibrate for 30 minutes and signal (665 nm/620 nm ratio) was obtained using an EnVision fluorometer. Additional binding assays were established between PD-1-Ig/PD-L2-His (20 and 5 nM, respectively), CD80-His/PD-L1-Ig (100 and 10 nM, respectively) and CD80-His/CTLA4-Ig (10 and 5 nM, respectively). Binding/competition studies between biotinylated Compound No. 71 and human PD-L1-His were performed as follows. Macrocyclic peptide inhibitors were pre-incubated with PD-L1-His (10 nM final) for 60 minutes in 4 μl of assay buffer followed by addition of biotinylated Compound No. 71 (0.5 nM final) in 1 μl of assay buffer. Binding was allowed to equilibrate for 30 minutes followed by addition of europium crypated labeled Streptavidin (2.5 pM final) and APC-labeled anti-His (20 nM final) in 5 μl of HTRF buffer. The reaction was allowed to equilibrate for 30 m and signal (665 nm/620 nm ratio) was obtained using an EnVision fluorometer.
Recombinant Proteins. Carboxyl-truncated human PD-1 (amino acids 25-167) with a C-terminal human Ig epitope tag [hPD-1 (25-167)-3S-IG] and human PD-L1 (amino acids 18-239) with a C-terminal His epitope tag [hPD-L1(19-239)-tobacco vein mottling virus protease cleavage site (TVMV)-His] were expressed in HEK293T cells and purified sequentially by recombinant Protein A affinity chromatography and size exclusion chromatography. Human PD-L2-His (Sino Biologicals), CD80-His (Sino Biologicals), CTLA4-Ig (RnD Systems) were all obtained through commercial sources.

CCCC[C@H]1C(=O)N(C)[C@@H](CCCC)C(=O)N[C@@H](CCCNC(=N)N)C(=O)N[C@H](C(=O)NCC(N)=O)CSCC(=O)N[C@@H](Cc2ccccc2)c2nnnn2[C@@H](C)C(=O)N[C@@H](CC(N)=O)C(=O)N2CCC[C@H]2C(=O)N[C@@H](Cc2cnc[nH]2)C(=O)N[C@@H](CC(C)C)C(=O)N(C)CC(=O)N[C@@H](Cc2c[nH]c3ccccc23)C(=O)N[C@@H](CO)C(=O)N[C@@H](Cc2c[nH]c3ccccc23)C(=O)N1C (single isomer, unassigned) [Example 1001]
IC50 (range classes): 100 to 10000 nM

CCCC[C@H]1C(=O)N(C)[C@@H](CCCC)C(=O)N[C@@H](CCCNC(=N)N)C(=O)N[C@H](C(=O)NCC(N)=O)CSCC(=O)N[C@@H](Cc2ccccc2)c2nnnn2[C@@H](C)C(=O)N[C@@H](CC(N)=O)C(=O)N2CCC[C@H]2C(=O)N[C@@H](Cc2cnc[nH]2)C(=O)N[C@@H](CC(C)C)C(=O)N(C)CC(=O)N[C@@H](Cc2c[nH]c3ccccc23)C(=O)N[C@@H](CO)C(=O)N[C@@H](Cc2c[nH]c3ccccc23)C(=O)N1C (single isomer, unassigned) [Example 1002]
IC50 (numeric values): 200 nM

CCCC[C@@H]1C(=O)N[C@@H](CCCNC(=N)N)C(=O)N[C@H](C(=O)NCC(N)=O)CSCC(=O)N[C@@H](Cc2ccccc2)c2cnnn2[C@@H](C)C(=O)N[C@H](CC(N)=O)C(=O)N2CCC[C@H]2C(=O)N[C@@H](Cc2cnc[nH]2)C(=O)N[C@@H](CC(C)C)C(=O)N(C)CC(=O)N[C@@H](Cc2c[nH]c3ccccc23)C(=O)N[C@@H](CO)C(=O)N[C@@H](Cc2c[nH]c3ccccc23)C(=O)N(C)[C@@H](CCCC)C(=O)N1C (single isomer, unassigned) [Example 1003]
IC50 (range classes): 100 to 10000 nM

CCCC[C@@H]1C(=O)N[C@@H](CCCNC(=N)N)C(=O)N[C@H](C(=O)NCC(N)=O)CSCC(=O)N[C@@H](Cc2ccccc2)c2cnnn2[C@@H](C)C(=O)N[C@H](CC(N)=O)C(=O)N2CCC[C@H]2C(=O)N[C@@H](Cc2cnc[nH]2)C(=O)N[C@@H](CC(C)C)C(=O)N(C)CC(=O)N[C@@H](Cc2c[nH]c3ccccc23)C(=O)N[C@@H](CO)C(=O)N[C@@H](Cc2c[nH]c3ccccc23)C(=O)N(C)[C@@H](CCCC)C(=O)N1C (single isomer, unassigned) [Example 1004]
IC50 (range classes): 100 to 10000 nM

CCCC[C@H]1C(=O)N(C)CC(=O)N[C@@H](CC(=O)O)C(=O)N[C@@H](C(C)C)C(=O)N(C)[C@@H](Cc2ccccc2)C(=O)N[C@@H](Cc2ccc(O)cc2)C(=O)N(C)CC(=O)N[C@@H](Cc2c[nH]c3ccccc23)C(=O)N[C@@H](Cc2ccc(O)cc2)C(=O)N[C@@H](CC(C)C)C(=O)N[C@H](C(=O)NCC(N)=O)CSCC(=O)NC(Cc2ccccc2)c2nnnn2[C@@H](Cc2ccccc2)C(=O)N1C (single isomer, unassigned) [Example 3001]
IC50 (range classes): 100 to 10000 nM

CCCC[C@H]1C(=O)N(C)CC(=O)N[C@@H](CC(=O)O)C(=O)N[C@@H](C(C)C)C(=O)N(C)[C@@H](Cc2ccccc2)C(=O)N[C@@H](Cc2ccc(O)cc2)C(=O)N(C)CC(=O)N[C@@H](Cc2c[nH]c3ccccc23)C(=O)N[C@@H](Cc2ccc(O)cc2)C(=O)N[C@@H](CC(C)C)C(=O)N[C@H](C(=O)NCC(N)=O)CSCC(=O)NC(Cc2ccccc2)c2nnnn2[C@@H](Cc2ccccc2)C(=O)N1C (single isomer, unassigned) [Example 3002]
IC50 (range classes): 100 to 10000 nM

CCCC[C@H]1C(=O)N[C@H](CCCNC(=N)N)C(=O)N[C@@H](C(=O)NCC(N)=O)CSCC(=O)N[C@@H](Cc2ccccc2)C(=O)N(C)[C@@H](C)C(=O)N[C@@H](CC(N)=O)C(=O)N2CCC[C@H]2C(=O)N[C@@H](Cc2cnc[nH]2)C(=O)N[C@@H](CC(C)C)C(=O)N(C)CC(=O)N[C@@H](Cc2c[nH]c3ccccc23)C(=O)N[C@@H](CO)C(=O)N[C@@H](Cc2cccc3ccccc23)c2nnnn2[C@@H](CCCC)C(=O)N1C [Example 1005]
IC50 (range classes): 100 to 10000 nM

CCCC[C@H]1C(=O)NC(CCCNC(=N)N)C(=O)N[C@H](C(=O)NCC(N)=O)CSCC(=O)N[C@@H](Cc2ccc(O)cc2)C(=O)N(C)[C@@H](C)C(=O)N[C@@H](CC(N)=O)C(=O)N2CCC[C@H]2C(=O)N[C@@H](Cc2cnc[nH]2)C(=O)N[C@@H](CC(C)C)C(=O)N2CCC[C@H]2C(=O)N[C@@H](Cc2c[nH]c3ccccc23)C(=O)N[C@@H](CO)C(=O)N[C@@H](Cc2cccc3ccccc23)c2nnnn2[C@@H](CCCC)C(=O)N1C (some centres unmarked) [Example 1006]
IC50 (range classes): 100 to 10000 nM

CCCCC1C(=O)N(C)[C@@H](CCCC)C(=O)N[C@@H](CCCNC(=N)N)C(=O)N[C@H](C(=O)NCC(N)=O)CSCC(=O)N[C@@H](Cc2ccccc2)c2nnnn2[C@@H](C)C(=O)N[C@@H](CC(N)=O)C(=O)N2CCC[C@H]2C(=O)N[C@@H](Cc2cnc[nH]2)C(=O)N[C@@H](CC(C)C)C(=O)N(C)CC(=O)N[C@@H](Cc2c[nH]c3ccccc23)C(=O)N[C@@H](CO)C(=O)N[C@@H](Cc2cccc3ccccc23)c2nnnn21 (some centres unmarked) [Example 1007]
IC50 (range classes): 100 to 10000 nM

CCCC[C@H]1C(=O)N(C)[C@@H](CCCC)C(=O)N[C@@H](CCCNC(=N)N)C(=O)N[C@H](C(=O)NCC(N)=O)CSCC(=O)N[C@@H](Cc2ccccc2)c2nnnn2[C@@H](C)C(=O)N[C@@H](CC(N)=O)C(=O)N2CCC[C@H]2C(=O)N[C@@H](Cc2cnc[nH]2)C(=O)N[C@@H](CC(C)C)C(=O)N2CCC[C@H]2C(=O)N[C@@H](Cc2c[nH]c3ccccc23)C(=O)N[C@@H](CO)C(=O)N[C@@H](Cc2csc3ccccc23)C(=O)N1C [Example 1010] ({CH2CO}-[X5]NPHLPWS[Bta][NMeNle][NMeNle]RCG-NH2; thioether N-13)
IC50 (range classes): 100 to 10000 nM

CCCC[C@H]1C(=O)N(C)[C@@H](CCCC)C(=O)N[C@@H](CCCNC(=N)N)C(=O)N[C@H](C(=O)NCC(N)=O)CSCC(=O)N[C@@H](Cc2ccc(O)cc2)c2nnnn2[C@@H](C)C(=O)N[C@@H](CC(N)=O)C(=O)N2CCC[C@H]2C(=O)N[C@@H](Cc2cnc[nH]2)C(=O)N[C@@H](CC(C)C)C(=O)N(C)CC(=O)N[C@@H](Cc2c[nH]c3ccccc23)C(=O)N[C@@H](CO)C(=O)N[C@@H](Cc2c[nH]c3ccccc23)C(=O)N1C [Example 1012] ({CH2CO}-[Tyrψ(CN4)Ala]NPHL[Sar]WSW[NMeNle][NMeNle]RCG-NH2; thioether N-13)
IC50 (numeric values): 30 nM

CCCC[C@H]1C(=O)N[C@@H](CCCN)C(=O)N[C@H](C(=O)NCC(N)=O)CSCC(=O)N[C@@H](Cc2ccc(O)cc2)C(=O)N(C)[C@@H](C)C(=O)N[C@@H](CC(N)=O)C(=O)N2CCC[C@H]2C(=O)N[C@@H](Cc2cnc[nH]2)C(=O)N[C@@H](CC(C)C)C(=O)N2C[C@H](O)C[C@H]2C(=O)N[C@@H](Cc2c[nH]c3ccccc23)C(=O)C[C@@H](CO)C(=O)N[C@@H](Cc2csc3ccccc23)c2nnnn2[C@@H](CCCC)C(=O)N1C [Example 1013] ({CH2CO}-Y[NMeA]NPHL[Hyp][X3][X4][NMeNle][Orn]CG-NH2; thioether N-12)
IC50 (range classes): 10 to 99 nM

CCCC[C@H]1C(=O)N(C)[C@@H](CCCC)C(=O)N[C@@H](CCCN)C(=O)N[C@H](C(=O)NCC(N)=O)CSCC(=O)N[C@@H](Cc2ccc(O)cc2)c2nnnn2[C@@H](C)C(=O)N[C@@H](CC(N)=O)C(=O)N2CCC[C@H]2C(=O)N[C@@H](CN)C(=O)N[C@@H](CC(C)C)C(=O)N2C[C@H](O)C[C@H]2C(=O)N[C@@H](Cc2c[nH]c3ccccc23)C(=O)N[C@@H](CO)C(=O)N[C@@H](Cc2c[nH]c3ccccc23)C(=O)N1C [Example 1014] ({CH2CO}-[Tyrψ(CN4)Ala]NP[Dap]L[Hyp]WSW[NMeNle][NMeNle][Orn]CG-NH2; thioether N-13)
IC50 (range classes): 5 to 9.9 nM

CCCC[C@H]1C(=O)N[C@@H](CCCN)C(=O)N[C@H](C(=O)NCC(N)=O)CSCC(=O)N[C@@H](Cc2ccc(O)cc2)C(=O)N(C)[C@@H](C)C(=O)N[C@@H](CC(N)=O)C(=O)N2CCC[C@H]2C(=O)N[C@@H](Cc2cnc[nH]2)C(=O)N[C@@H](CC(C)C)C(=O)N2C[C@H](O)C[C@H]2C(=O)N[C@@H](Cc2c[nH]c3ccccc23)C(=O)N[C@@H](CO)C(=O)N[C@@H](Cc2c[nH]c3ccccc23)c2nnnn2[C@@H](CCCC)C(=O)N1C [Example 1050] ({CH2CO}-Y[NMeA]NPHL[Hyp]WS[X1][NMeNle][Orn]CG-NH2; thioether N-13)
IC50 (range classes): 100 to 10000 nM
